Source: patent US20040220224A1, “Method of treating irritable bowel syndrome” (Pfizer Inc, priority 2003, published 2004)

Test system: female BALB/c or CD-1 mice
Assay: Intestinal motility model in mice (gastrointestinal transit of red dye)
Format: in vivo
Details: mice fasted 24 h, red dye 1 h after treatment, measured 20 min later
Protocol: Intestinal Motility Model:
An intestinal motility model in mice may be used to evaluate of antimuscarinic compounds of formulae I-V as potential treatment for irritable bowel syndrome. In the studies, female BALB/c or CD-1 mice are fasted for 24 hours and then treated orally with one or more compounds of formulae I-V or vehicle. One hour after of treatment, the mice receive a red dye mixture via gastric gavage. Twenty minutes later, the animals are euthanized and the small intestine is removed. Gastrointestinal transit (GIT) is calculated using the measured length of the small intestine from the pyloric sphincter to the ileocecal junction and the distance traveled by the red dye front. Percent inhibition is indicated above bars.

Row | Structure (SMILES) | inhibition of gastrointestinal transit (GIT) (oral dose 10 mg/kg) [%] | inhibition of gastrointestinal transit (GIT) (oral dose 30 mg/kg) | inhibition of gastrointestinal transit (GIT) (oral dose 60 mg/kg)
1 | C[N+]1(CCc2ccc3c(c2)CCO3)CC[C@@H](C(C(N)=O)(c2ccccc2)c2ccccc2)C1.[I-] (stereo partly drawn) [Example 27, (3S)-3-(2-amino-2-oxo-1,1-diphenylethyl)-1-[2-(2,3-dihydro-1-benzofuran-5-yl)ethyl]-1-methylpyrrolidinium iodide] | 13 | 20% | 30%
2 | NC(=O)C(c1ccccc1)(c1ccccc1)[C@@H]1CCN(CCc2ccc3c(c2)CCO3)C1 [reference compound] |  | about 15% | about 15%
3 | Cc1ccc(O)c([C@H](CC[N+](C)(C(C)C)C(C)C)c2ccccc2)c1 [Example 3, (3R)-3-(2-Hydroxy-5-methylphenyl)-N,N-diisopropyl-N-methyl-3-phenylpropan-1-aminium bromide] | 17 | 29% | 28%
